{"source": "patent US20230340498A1", "about": "“COMPOSITIONS AND METHODS FOR INDUCIBLE ALTERNATIVE SPLICING REGULATION OF GENE EXPRESSION” (The Children's Hospital of Philadelphia, priority 2020, published 2023)", "key": {"HEK293 cells": {"test_system": "HEK293 cells", "assay": "RNA-Seq of HEK293 cells treated with LMI070 for LMI070-induced splicing events", "assay_type": "cell-based, Human", "details": "HEK293, 25 nM LMI070 for 12 hours", "protocol": "Tables 1A-1E provide the genomic locations of candidate LMI070-induced exons and the frequency of events from RNA-Seq datasets. Summarized here are the differentially expressed candidate LMI070-induced splicing positions as identified by RNA-Seq of HEK293 cells treated with either DMSO or LMI070 (25 nM). All candidates shown were manually selected from a bioinformatically generated list of top hits based on their suitability for construction of an exon switching genomic minigene, their exclusivity to the LMI070 condition, and their minimal to undetectable levels in DMSO treated cells. The top 25 rows of each table indicate hits observed exclusively upon LMI070 exposure. The following 22 rows of each table indicate candidates where splicing was enriched but not totally exclusive to LMI070 treatment.\nTable 1A provides the GRCh38 genomic positions used to create the splice event-containing genomic minigene, the GRCh38 genomic positions of the pseudoexon created by LMI070-induced splicing, the number of exon-exon junction spanning reads observed with DMSO treatment, and the number of exon-exon junctions spanning reads observed with LMI070 treatment. […]\nRNA-Seq Methods. […] Splice junction output by STAR were quantified using a custom R script designed to identify splicing events unique to LMI070 treatment. Top ranking LMI070-exclusive splice events were manually assessed for their applicability to function as a splicing switch. […] Candidate splice events were visually evaluated using the Sashimi plot function available in IGV (Thorvaldsdottir et al., 2013; Katz et al., 2015).\nNext, exons that were more sensitive to LMI070 to reduce non-target splice events were sought out. […] Reads obtained from 4 control and 4 LMI070 treated samples were aligned to the genome using the STAR aligner (Dobin & Gingeras, 2015) and splicing events exclusive to the LMI070 treated samples identified (FIGS. 2A and 2F-2N; Table 1). […]"}, "AAV8.Xon.Epo": {"test_system": "AAV8.Xon.Epo", "assay": "In vivo induction of AAV8.Xon.Epo in C57Bl6 mice", "details": "24 h after the last LMI070 dose", "from_the_text": "(§1) To assess the applicability of Xon for liver targeted therapies, AAV8.Xon.Epo and AAV8.Xon.SaCas9 vectors were generated and delivered to C57Bl6 and Ai14 reporter mice, respectively (FIGS. 7A, 7C, 7F)."}, "[1]": {"test_system": "Ai14 reporter genomic locus", "assay": "In vivo AAV8.Xon.SaCas9 editing of Ai14 reporter locus in liver", "details": "Ai14 mice, PCR and tdTomato expression", "from_the_text": "as §1"}}, "data": [{"smiles": "CC1(C)CC(Oc2ccc(-c3ccc(-c4cn[nH]c4)cc3O)nn2)CC(C)(C)N1", "note": "[LMI070, 5-(1H-Pyrazol-4-yl)-2-(6-((2,2,6,6-tetramethylpiperidin-4-yl)oxy)pyridazin-3-yl)phenol]", "values": [{"measurement": "events evident in all treated and in one of the control untreated samples", "setting": "HEK293 cells", "result": 22}, {"measurement": "events found exclusively and in all LMI070 treated samples", "setting": "HEK293 cells", "result": 23}, {"measurement": "novel splicing events identified following LMI070 treatment", "setting": "HEK293 cells; threshold average greater than 5 novel intron splicing events", "result": 45}, {"measurement": "induction of Mouse Epo and hematocrit levels", "setting": "AAV8.Xon.Epo", "result": "Induction of Mouse Epo and hematocrit levels were detected"}, {"measurement": "editing of the Ai14 reporter genomic locus (liver)", "setting": "[1]", "result": "only observed on mice injected with AAV8.Xon.SaCas9 virus and treated with LMI070"}]}]}
